Values joined by “and” are separate entries in the source; they are usually repeats but may differ in a detail not shown here. Identical values can stand only once. Toxic doses and inconclusive results are not listed. The calls were made as follows: active = survival T/C of 150% or more; inactive = T/C below 125% in these data.
System: P388 leukemia ip, CD2F1 mice, survival T/C
Experiment: NCI In Vivo Anticancer Drug Screen. Data for tumor model P388 Leukemia (intraperitoneal) in CD2F1 (CDF1) mice
Details: endpoint: median survival time, higher = longer survival
Method in brief: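 Mice carrying the transplanted tumor received test compound or vehicle. Survival was recorded in each group, and the value is the treated-group measurement divided by that of the vehicle-treated control group.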

[1] = dose: 60.0 mg/kg/injection, schedule: Q01DX005 (ip), vehicle: saline with Tween-80
[2] = dose: 120.0 mg/kg/injection, schedule: Q01DX005 (ip), vehicle: saline with Tween-80
[3] = dose: 240.0 mg/kg/injection, schedule: Q01DX005 (ip), vehicle: saline with Tween-80
[4] = dose: 50.0 mg/kg/injection, schedule: Q01DX005 (ip), vehicle: Klucel (hydroxypropylcellulose) (HPC)
[5] = dose: 30.0 mg/kg/injection, schedule: Q01DX005 (ip), vehicle: saline with Tween-80
[6] = dose: 50.0 mg/kg/injection, schedule: Q01DX009 (ip), vehicle: saline with Tween-80
[7] = dose: 100.0 mg/kg/injection, schedule: Q01DX009 (ip), vehicle: saline with Tween-80
[8] = dose: 200.0 mg/kg/injection, schedule: Q01DX009 (ip), vehicle: saline with Tween-80
[9] = dose: 100.0 mg/kg/injection, schedule: Q01DX005 (ip), vehicle: Klucel (hydroxypropylcellulose) (HPC)
[10] = dose: 200.0 mg/kg/injection, schedule: Q01DX005 (ip), vehicle: Klucel (hydroxypropylcellulose) (HPC)

Measured: T/C

COC(=O)C(C(=O)OC)=C(NS(=O)(=O)c1ccc(C)cc1)SC
inactive: dose: 12.5 mg/kg/injection, schedule: Q04DX002 (ip), vehicle: saline with Tween-80 100 % of control | dose: 25.0 mg/kg/injection, schedule: Q04DX002 (ip), vehicle: saline with Tween-80 100 % of control | dose: 50.0 mg/kg/injection, schedule: Q04DX002 (ip), vehicle: saline with Tween-80 109 % of control

CC1OC(OC2C(CO)OC(O[C@H]3CC[C@@]4(C)C(=CC[C@H]5[C@@H]6C[C@@H]7O[C@]8(CC[C@@H](C)CN8)[C@@H](C)[C@@H]7[C@@]6(C)CC[C@@H]54)C3)C(O)C2O)C(O)C(O)C1O (some centres undefined)
inactive: dose: 12.5 mg/kg/injection, schedule: Q01DX005 (ip), vehicle: acid diluted with saline 101 % of control | dose: 25.0 mg/kg/injection, schedule: Q01DX005 (ip), vehicle: acid diluted with saline 105 % of control | dose: 50.0 mg/kg/injection, schedule: Q01DX005 (ip), vehicle: acid diluted with saline 105 % of control and 87 % of control | dose: 100.0 mg/kg/injection, schedule: Q01DX005 (ip), vehicle: acid diluted with saline 105 % of control

O=C1C2=C(Nc3ccccc3N2)OC1c1ccc(C2OC3=C(Nc4ccccc4N3)C2=O)cc1 (centres undefined)
inactive: dose: 60.0 mg/kg/injection, schedule: Q01DX005 (ip), vehicle: Klucel (hydroxypropylcellulose) (HPC) 88 % of control | dose: 120.0 mg/kg/injection, schedule: Q01DX005 (ip), vehicle: Klucel (hydroxypropylcellulose) (HPC) 88 % of control | dose: 240.0 mg/kg/injection, schedule: Q01DX005 (ip), vehicle: Klucel (hydroxypropylcellulose) (HPC) 87 % of control

CC1(C)CC2(CC(C)(C)N1O)NC(=O)OC2=O
inactive: [1] 97 % of control | [2] 97 % of control | [3] 106 % of control

COc1cc2nncc(Cl)c2cc1OC
inactive: [4] 101 % of control

CCN(CC)CCCNC(=O)C(c1ccccc1)c1ccccc1
inactive: dose: 12.5 mg/kg/injection, schedule: Q01DX005 (ip), vehicle: saline 100 % of control | dose: 25.0 mg/kg/injection, schedule: Q01DX005 (ip), vehicle: saline 115 % of control | dose: 50.0 mg/kg/injection, schedule: Q01DX005 (ip), vehicle: saline 100 % of control and 92 % of control

Clc1ccc(CN2COc3c(cc(Cl)c4cccnc34)C2)c(Cl)c1
inactive: dose: 100.0 mg/kg/injection, schedule: Q04DX003 (ip), vehicle: Klucel (hydroxypropylcellulose) (HPC) 102 % of control | dose: 200.0 mg/kg/injection, schedule: Q04DX003 (ip), vehicle: Klucel (hydroxypropylcellulose) (HPC) 87 % of control | dose: 400.0 mg/kg/injection, schedule: Q04DX003 (ip), vehicle: Klucel (hydroxypropylcellulose) (HPC) 87 % of control

COC(=O)C(=O)c1c(C(=O)OC)nc2nnc(N)n2c1-c1ccc(F)cc1
inactive: [5] 93 % of control | [1] 99 % of control | [2] 88 % of control | [3] 93 % of control

CC(C)(C)c1ccc(OCCSCCOc2ccc(C(C)(C)C)cc2)cc1
inactive: [6] 90 % of control | [7] 90 % of control | [8] 90 % of control

N#CNc1c2ccccc2nc2ccccc12
inactive: dose: 15.0 mg/kg/injection, schedule: Q01DX005 (ip), vehicle: saline with Tween-80 101 % of control | [5] 97 % of control | [1] 99 % of control and 100 % of control

O=S(=O)(Cc1ccccc1)C1CC1
inactive: dose: 50.0 mg/kg/injection, schedule: Q01DX009 (ip), vehicle: saline 122 % of control | dose: 50.0 mg/kg/injection, schedule: Q01DX009 (ip), vehicle: suspension in saline 104 % of control and 106 % of control | dose: 100.0 mg/kg/injection, schedule: Q01DX009 (ip), vehicle: saline 119 % of control | dose: 100.0 mg/kg/injection, schedule: Q01DX009 (ip), vehicle: suspension in saline 108 % of control and 94 % of control | dose: 200.0 mg/kg/injection, schedule: Q01DX009 (ip), vehicle: saline 118 % of control | dose: 200.0 mg/kg/injection, schedule: Q01DX009 (ip), vehicle: suspension in saline 102 % of control and 97 % of control | dose: 400.0 mg/kg/injection, schedule: Q01DX009 (ip), vehicle: saline 102 % of control | dose: 400.0 mg/kg/injection, schedule: Q01DX009 (ip), vehicle: suspension in saline 100 % of control and 105 % of control

Nc1ncc(CCCCc2ccccc2)c(=O)[nH]1
inactive: dose: 100.0 mg/kg/injection, schedule: Q01DX001 (ip), vehicle: saline with Tween-80 100 % of control | dose: 200.0 mg/kg/injection, schedule: Q01DX001 (ip), vehicle: saline with Tween-80 104 % of control | dose: 400.0 mg/kg/injection, schedule: Q01DX001 (ip), vehicle: saline with Tween-80 100 % of control

O=C(CN(O)C(=O)c1ccccc1)OCc1ccccc1
inactive: dose: 12.5 mg/kg/injection, schedule: Q01DX009 (ip), vehicle: distilled water + Tween-80 97 % of control | dose: 25.0 mg/kg/injection, schedule: Q01DX009 (ip), vehicle: distilled water + Tween-80 99 % of control | dose: 50.0 mg/kg/injection, schedule: Q01DX009 (ip), vehicle: distilled water + Tween-80 99 % of control | dose: 100.0 mg/kg/injection, schedule: Q01DX009 (ip), vehicle: distilled water + Tween-80 101 % of control | dose: 200.0 mg/kg/injection, schedule: Q01DX009 (ip), vehicle: distilled water + Tween-80 101 % of control

CC(C)N(C(N)=O)c1ccc2c(c1)OCO2
inactive: [6] 98 % of control | [7] 107 % of control | [8] 98 % of control

CC(=O)Nc1nc(N)nc(N)n1
inactive: [6] 106 % of control | [7] 103 % of control | [8] 88 % of control

Cc1cc2cc3c(C)cc(=O)oc3c(C)c2o1
inactive: [7] 118 % of control | [8] 112 % of control | dose: 400.0 mg/kg/injection, schedule: Q01DX009 (ip), vehicle: saline with Tween-80 102 % of control

O=S(=O)(CCl)OCCF
inactive: dose: 1.56 mg/kg/injection, schedule: Q01DX009 (ip), vehicle: saline with Tween-80 110 % of control | dose: 3.12 mg/kg/injection, schedule: Q01DX009 (ip), vehicle: saline with Tween-80 102 % of control | dose: 6.25 mg/kg/injection, schedule: Q01DX009 (ip), vehicle: saline with Tween-80 105 % of control and 117 % of control

CCCCCC[Se][Se]CCCCCC
inactive: dose: 3.12 mg/kg/injection, schedule: Q01DX005 (ip), vehicle: Klucel (hydroxypropylcellulose) (HPC) 98 % of control | dose: 6.25 mg/kg/injection, schedule: Q01DX005 (ip), vehicle: Klucel (hydroxypropylcellulose) (HPC) 97 % of control | dose: 12.5 mg/kg/injection, schedule: Q01DX005 (ip), vehicle: Klucel (hydroxypropylcellulose) (HPC) 106 % of control | dose: 25.0 mg/kg/injection, schedule: Q01DX005 (ip), vehicle: Klucel (hydroxypropylcellulose) (HPC) 104 % of control

CC(C)CC(NC(=O)CCNC(=O)OCc1ccccc1)C(=O)O (centres undefined)
inactive: [4] 100 % of control | [9] 101 % of control | [10] 91 % of control

O=C1C=CC(=O)N1Cc1ccco1
inactive: dose: 100.0 mg/kg/injection, schedule: Q04DX003 (ip), vehicle: saline 90 % of control | dose: 200.0 mg/kg/injection, schedule: Q04DX003 (ip), vehicle: saline 95 % of control | dose: 400.0 mg/kg/injection, schedule: Q04DX003 (ip), vehicle: saline 95 % of control

C=C1C(=O)C23C(OC(=O)/C=C/c4ccccc4)C1CCC2C12COC3(O)C(O)C1C(C)(C)CCC2O (centres undefined)
inactive: dose: 3.75 mg/kg/injection, schedule: Q01DX009 (ip), vehicle: saline with Tween-80 98 % of control | dose: 7.5 mg/kg/injection, schedule: Q01DX009 (ip), vehicle: saline with Tween-80 95 % of control | dose: 15.0 mg/kg/injection, schedule: Q01DX009 (ip), vehicle: saline with Tween-80 101 % of control | dose: 30.0 mg/kg/injection, schedule: Q01DX009 (ip), vehicle: saline with Tween-80 98 % of control

NCCSc1nc(-c2ccccc2)c(-c2ccccc2)o1
inactive: dose: 50.0 mg/kg/injection, schedule: Q01DX009 (ip), vehicle: Klucel (hydroxypropylcellulose) (HPC) 100 % of control | dose: 100.0 mg/kg/injection, schedule: Q01DX009 (ip), vehicle: Klucel (hydroxypropylcellulose) (HPC) 100 % of control | dose: 200.0 mg/kg/injection, schedule: Q01DX009 (ip), vehicle: Klucel (hydroxypropylcellulose) (HPC) 101 % of control

CC(C)n1cccc(C#N)c1=S
inactive: [4] 101 % of control | [9] 98 % of control | [10] 97 % of control

Nc1ccc2c(c1)C1(CCC2)NC(=O)NC1=O (centres undefined)
inactive: [6] 96 % of control | [7] 95 % of control | [8] 105 % of control

CCOC(=O)CC1=CSC(=C(C(=O)OCC)C(=O)OCC)N1c1ccccc1
inactive: dose: 50.0 mg/kg/injection, schedule: Q01DX005 (ip), vehicle: saline with Tween-80 96 % of control | dose: 100.0 mg/kg/injection, schedule: Q01DX005 (ip), vehicle: saline with Tween-80 91 % of control | dose: 200.0 mg/kg/injection, schedule: Q01DX005 (ip), vehicle: saline with Tween-80 86 % of control
